In brackets after ≈: the same amount, converted by molar mass.
How the values were obtained:
[1] = Binding affinity towards histone deacetylase (HDAC) enzyme derived from chicken liver (CL) cells using [3H]11; design: species or system Gallus gallus
Eimeria tenella = experiment: In vitro antiprotozoal activity using […] bovine kidney host cells infected with Eimeria tenella; format: functional
Plasmodium falciparum = experiment: In vitro antiprotozoal activity against Plasmodium falciparum infected erythrocytes; format: functional, organism-based
Histone deacetylase = experiment: Inhibitory activity against histone deacetylase (HDAC) enzyme derived from partially purified extracts of human HeLa cells using [3H]11 as radioligand
[2] = Tested in vitro by mammalian antiproliferative functional assay using human HeLa cells or foreskin fibroblasts
[3] = Binding affinity towards HDAC enzyme derived from chicken liver (CL) cells; design: species or system Gallus gallus

CCC(=O)CCCCC[C@@H]1NC(=O)[C@H]2CCCCN2C(=O)[C@H]([C@@H](C)CC)NC(=O)[C@H](C(=O)c2c[nH]c3ccccc23)NC1=O
Ki [1]: 12 nM | MIC (Eimeria tenella): 0.125 µg/mL (≈ 0.206 µM) | IC50 (Plasmodium falciparum): 0.016 µg/mL (≈ 0.0263 µM)

CCC(=O)CCCCC[C@@H]1NC(=O)[C@H]2CCCCN2C(=O)[C@H]([C@@H](C)CC)NC(=O)[C@H](CC(=O)c2ccccc2[N+](=O)[O-])NC1=O
MIC (Eimeria tenella): 0.125 µg/mL (≈ 0.199 µM) | IC50 (Histone deacetylase): 91 nM | IC50 (Plasmodium falciparum): 0.5 µg/mL (≈ 0.797 µM)

CCC(=O)CCCCC[C@@H]1NC(=O)[C@H]2CCCCN2C(=O)[C@H]([C@@H](C)CC)NC(=O)[C@@H](C(=O)Cc2ccccc2)NC1=O
MIC (Eimeria tenella): 0.5 µg/mL (≈ 0.858 µM) | AP50 [2]: >10000 ng/mL | IC50 (Plasmodium falciparum): 0.777 µg/mL (≈ 1.33 µM) | Ki [3]: 500 nM

CCC(=O)CCCCC[C@@H]1NC(=O)[C@H]2CCCCN2C(=O)[C@H]([C@@H](C)CC)NC(=O)[C@@H](c2cnc3ccccc3c2O)NC1=O
MIC (Eimeria tenella): > 1 µg/mL | AP50 [2]: >10000 ng/mL | IC50 (Plasmodium falciparum): 0.055 µg/mL (≈ 0.0905 µM) | Ki [3]: 500 nM

CCC(=O)CCCCC[C@@H]1NC(=O)[C@H]2CCCCN2C(=O)[C@H]([C@@H](C)CC)NC(=O)[C@H](c2cnc3ccccc3c2O)NC1=O
MIC (Eimeria tenella): > 1 µg/mL | AP50 [2]: >10000 ng/mL | IC50 (Plasmodium falciparum): 0.04 µg/mL (≈ 0.0658 µM) | Ki [3]: 1000 nM

CCC(=O)CCCCC[C@@H]1NC(=O)[C@H]2CCCCN2C(=O)[C@H]([C@@H](C)CC)NC(=O)[C@H](c2cn(CC)c3ccccc3c2=O)NC1=O
MIC (Eimeria tenella): > 1 µg/mL | AP50 [2]: >10000 ng/mL | IC50 (Plasmodium falciparum): 0.24 µg/mL (≈ 0.377 µM) | Ki [3]: 2000 nM

CCC(=O)CCCCC[C@@H]1NC(=O)[C@H]2CCCCN2C(=O)[C@H]([C@@H](C)CC)NC(=O)[C@H](c2cn(OC)c3ccccc3c2=O)NC1=O
MIC (Eimeria tenella): 0.25 µg/mL (≈ 0.392 µM) | AP50 [2]: 10000 ng/mL | IC50 (Plasmodium falciparum): 0.04 µg/mL (≈ 0.0627 µM) | Ki [3]: 1500 nM

CCC(=O)CCCCC[C@@H]1NC(=O)[C@H]2CCCCN2C(=O)[C@H]([C@@H](C)CC)NC(=O)[C@H](CCOc2ccccc2)NC1=O
MIC (Eimeria tenella): 0.25 µg/mL (≈ 0.428 µM) | AP50 [2]: 1450 ng/mL | IC50 (Histone deacetylase): 34 nM

CCC(=O)CCCCC[C@@H]1NC(=O)[C@H]2CCCCN2C(=O)[C@H]([C@@H](C)CC)NC(=O)[C@H](Cc2c(Br)[nH]c3ccccc23)NC1=O
Ki [1]: 3 nM | MIC (Eimeria tenella): 0.015 µg/mL (≈ 0.0223 µM) | IC50 (Plasmodium falciparum): 0.025 µg/mL (≈ 0.0372 µM)

CCC(=O)CCCCC[C@@H]1NC(=O)[C@H]2CCCCN2C(=O)[C@H]([C@@H](C)CC)NC(=O)[C@H](Cc2c(-c3ccc4c(ccn4C)c3)[nH]c3ccccc23)NC1=O
Ki [1]: 5 nM | MIC (Eimeria tenella): 0.062 µg/mL (≈ 0.0858 µM) | IC50 (Plasmodium falciparum): 0.1 µg/mL (≈ 0.138 µM)

CCC(=O)CCCCC[C@@H]1NC(=O)[C@H]2CCCCN2C(=O)[C@H]([C@@H](C)CC)NC(=O)[C@H](Cc2cn(CC(=O)O)c3ccccc23)NC1=O
Ki [1]: 80 nM | MIC (Eimeria tenella): > 1 µg/mL | IC50 (Plasmodium falciparum): > 1 µg/mL

CCC(=O)CCCCC[C@@H]1NC(=O)[C@H]2CCCCN2C(=O)[C@H]([C@@H](C)CC)NC(=O)[C@H](CC(=O)Cc2ccccc2)NC1=O
MIC (Eimeria tenella): > 1 µg/mL | AP50 [2]: >10000 ng/mL | IC50 (Plasmodium falciparum): 0.85 µg/mL (≈ 1.42 µM) | Ki [3]: 2000 nM

CCC(=O)CCCCC[C@@H]1NC(=O)[C@H]2CCCCN2C(=O)[C@H]([C@@H](C)CC)NC(=O)[C@@H](C(=O)c2ccc3c(ccn3C)c2)NC1=O
Ki [1]: 20 nM | MIC (Eimeria tenella): 0.05 µg/mL (≈ 0.0804 µM) | IC50 (Plasmodium falciparum): 0.015 µg/mL (≈ 0.0241 µM)

CCC(=O)CCCCC[C@@H]1NC(=O)[C@H]2CCCCN2C(=O)[C@H]([C@@H](C)CC)NC(=O)[C@@H](C(=O)c2c[nH]c3ccccc23)NC1=O
Ki [1]: 30 nM | MIC (Eimeria tenella): 0.125 µg/mL (≈ 0.206 µM) | IC50 (Plasmodium falciparum): 0.07 µg/mL (≈ 0.115 µM)

CCC(=O)CCCCC[C@@H]1NC(=O)[C@H]2CCCCN2C(=O)[C@H]([C@@H](C)CC)NC(=O)[C@H](CC(=O)C(C)(C)C)NC1=O
MIC (Eimeria tenella): > 1 µg/mL | AP50 [2]: >10000 ng/mL | IC50 (Plasmodium falciparum): 0.775 µg/mL (≈ 1.38 µM) | Ki [3]: 2000 nM

CCC(=O)CCCCC[C@@H]1NC(=O)[C@H]2CCCCN2C(=O)[C@H]([C@@H](C)CC)NC(=O)[C@H](c2cnc3ccccc3c2N2CCCCC2)NC1=O [listing 1 of 2 here]
IC50 (Histone deacetylase): 13 nM | IC50 (Plasmodium falciparum): 0.055 µg/mL (≈ 0.0815 µM) | Ki [3]: 100 nM

CCC(=O)CCCCC[C@@H]1NC(=O)[C@H]2CCCCN2C(=O)[C@H]([C@@H](C)CC)NC(=O)[C@H](c2cnc3ccccc3c2N2CCCCC2)NC1=O [listing 2 of 2 here]
MIC (Eimeria tenella): 0.125 µg/mL (≈ 0.185 µM) | AP50 [2]: 2500 ng/mL

CCC(=O)CCCCC[C@@H]1NC(=O)[C@H]2CCCCN2C(=O)[C@H]([C@@H](C)CC)NC(=O)[C@H](c2cnc3ccccc3c2Cl)NC1=O [listing 1 of 2 here]
IC50 (Histone deacetylase): 67 nM | IC50 (Plasmodium falciparum): 0.225 µg/mL (≈ 0.359 µM) | Ki [3]: 300 nM

CCC(=O)CCCCC[C@@H]1NC(=O)[C@H]2CCCCN2C(=O)[C@H]([C@@H](C)CC)NC(=O)[C@H](c2cnc3ccccc3c2Cl)NC1=O [listing 2 of 2 here]
MIC (Eimeria tenella): 0.2 µg/mL (≈ 0.319 µM) | AP50 [2]: 10000 ng/mL

CCC(=O)CCCCC[C@@H]1NC(=O)[C@H]2CCCCN2C(=O)[C@H]([C@@H](C)CC)NC(=O)[C@H](Cc2c(-c3ccccc3)[nH]c3ccccc23)NC1=O
MIC (Eimeria tenella): > 1 µg/mL | IC50 (Histone deacetylase): 4 nM | IC50 (Plasmodium falciparum): 0.7 µg/mL (≈ 1.04 µM)

CCC(=O)CCCCC[C@@H]1NC(=O)[C@H]2CCCCN2C(=O)[C@H]([C@@H](C)CC)NC(=O)[C@H](Cc2c(-c3cc(OC)cc(OC)c3)[nH]c3ccccc23)NC1=O
MIC (Eimeria tenella): 0.125 µg/mL (≈ 0.171 µM) | IC50 (Histone deacetylase): 0.2 nM | IC50 (Plasmodium falciparum): 0.25 µg/mL (≈ 0.343 µM)

CCC(=O)CCCCC[C@@H]1NC(=O)[C@H]2CCCCN2C(=O)[C@H]([C@@H](C)CC)NC(=O)[C@H](CC2CN(OC)c3ccc(Br)cc32)NC1=O (stereo not given in full)
Ki [1]: 4500 nM | MIC (Eimeria tenella): 0.1 µg/mL (≈ 0.142 µM) | IC50 (Plasmodium falciparum): > 1 µg/mL

CCCCCCCCCCC(=O)C[C@@H]1NC(=O)[C@H](CCCCCC(=O)CC)NC(=O)[C@H]2CCCCN2C(=O)[C@H]([C@@H](C)CC)NC1=O
MIC (Eimeria tenella): > 1 µg/mL | AP50 [2]: >10000 ng/mL | IC50 (Plasmodium falciparum): > 1 µg/mL | Ki [3]: > 1000 nM

CCC(=O)CCCCC[C@@H]1NC(=O)[C@H]2CCCCN2C(=O)[C@H]([C@@H](C)CC)NC(=O)[C@H](Cc2cn(OC)c3ccc(Br)cc23)NC1=O
Ki [1]: 60 nM | MIC (Eimeria tenella): 0.5 µg/mL (≈ 0.712 µM) | IC50 (Plasmodium falciparum): 0.55 µg/mL (≈ 0.783 µM)

CCC(=O)CCCCC[C@@H]1NC(=O)[C@H]2CCCCN2C(=O)[C@H]([C@@H](C)CC)NC(=O)[C@H](Cc2c[nH]c3ccccc23)NC1=O
MIC (Eimeria tenella): 0.031 µg/mL (≈ 0.0522 µM) | IC50 (Histone deacetylase): 2 nM | IC50 (Plasmodium falciparum): 0.035 µg/mL (≈ 0.0589 µM)

CCCn1cc(C(=O)[C@H]2NC(=O)[C@H](CCCCCC(=O)CC)NC(=O)[C@H]3CCCCN3C(=O)[C@H]([C@@H](C)CC)NC2=O)c2ccccc21
MIC (Eimeria tenella): 0.125 µg/mL (≈ 0.192 µM) | IC50 (Histone deacetylase): 15 nM | IC50 (Plasmodium falciparum): 0.15 µg/mL (≈ 0.231 µM)

CCC(=O)CCCCC[C@@H]1NC(=O)[C@H]2CCCCN2C(=O)[C@H]([C@@H](C)CC)NC(=O)[C@H](Cc2cn(CN3CCCC3)c3ccccc23)NC1=O
MIC (Eimeria tenella): 0.031 µg/mL (≈ 0.0458 µM) | IC50 (Histone deacetylase): 0.2 nM | IC50 (Plasmodium falciparum): 0.035 µg/mL (≈ 0.0517 µM)

CCC(=O)CCCCC[C@@H]1NC(=O)[C@H]2CCCCN2C(=O)[C@H]([C@@H](C)CC)NC(=O)[C@H](Cc2cn(CCN)c3ccccc23)NC1=O
MIC (Eimeria tenella): > 1 µg/mL | IC50 (Histone deacetylase): 1.3 nM | IC50 (Plasmodium falciparum): 0.1 µg/mL (≈ 0.157 µM)

CCC(=O)CCCCC[C@@H]1NC(=O)[C@H]2CCCCN2C(=O)[C@H]([C@@H](C)CC)NC(=O)[C@H](Cc2cn(CC)c3ccccc23)NC1=O
Ki [1]: 10 nM | MIC (Eimeria tenella): 0.05 µg/mL (≈ 0.0804 µM) | IC50 (Plasmodium falciparum): 0.18 µg/mL (≈ 0.289 µM)

CCC(=O)CCCCC[C@@H]1NC(=O)[C@H]2CCCCN2C(=O)[C@H]([C@@H](C)CC)NC(=O)[C@H](Cc2cn(C)c3ccccc23)NC1=O
Ki [1]: 5 nM | MIC (Eimeria tenella): 0.125 µg/mL (≈ 0.206 µM) | IC50 (Plasmodium falciparum): 0.02 µg/mL (≈ 0.0329 µM)

CCC(=O)CCCCC[C@@H]1NC(=O)[C@H]2CCCCN2C(=O)[C@H]([C@@H](C)CC)NC(=O)[C@H](Cc2cn(OC)c3ccccc23)NC1=O [APICIDIN]
MIC (Eimeria tenella): 0.094 µg/mL (≈ 0.151 µM) | AP50 [2]: 89 ng/mL | IC50 (Plasmodium falciparum): 0.058 µg/mL (≈ 0.093 µM) | Ki [3]: 4 nM

From ChEMBL document CHEMBL1133988 (Bioorg Med Chem Lett, 2001)
